The values that follow come from patent US8598208B2, “Pyridine derivatives as S1P1/EDG1 receptor modulators” (Actelion Pharmaceuticals Ltd., priority 2007, dated 2013).

In general, EC50 refers to the concentration giving half of the maximal effect.

The target in assay [1] is recombinant human S1P1 receptor (Homo sapiens, UniProt P21453). In words: GTPγS assay to determine EC50 values. The assay is classed as biochemical. To be noted: membrane preparations of CHO cells expressing recombinant human S1P1 receptor; pH 7.4; read-out: EC50 (agonistic activity, 35S-GTPγS binding). How it is done: GTPγS binding assays are performed in 96 well microtiter plates (Nunc, 442587) in a final volume of 200 μl, using membrane preparations of CHO cells expressing recombinant human S1P1 receptor. Assay conditions are 20 mM Hepes (Fluka, 54461), 100 mM NaCl (Fluka, 71378), 5 mM MgCl2 (Fluka, 63064), 0.1% BSA (Calbiochem, 126609), 1 μM GDP (Sigma, G-7127), 2.5% DMSO (Fluka, 41644), […] ^35S-GTPγS (Amersham Biosciences, SJ1320). The pH is 7.4. Test compounds are dissolved and diluted in 100% DMSO and pre-incubated at room temperature for 30 min in 150 μl of the above assay buffer, in the absence of ^35S-GTPγS. After addition of 50 μl of ^35S-GTPγS, the assay is incubated for 1 h at rt. The assay is terminated by transfer of the reaction mixture to a Multiscreen plate (Millipore, MAHFC1H60) using a cell harvester from Packard Biosciences, and the plates are washed with ice-cold 10 mM Na2HPO4/NaH2PO4 (70%/30%), dried, sealed at the bottom and, after addition of 25 μl MicroScint20 (Packard Biosciences, order#6013621), sealed on the top. Membrane-bound ^35S-GTPγS is measured with a TopCount from Packard Biosciences.
Chain of recombinant human S1P1 receptor (P21453 whole entry): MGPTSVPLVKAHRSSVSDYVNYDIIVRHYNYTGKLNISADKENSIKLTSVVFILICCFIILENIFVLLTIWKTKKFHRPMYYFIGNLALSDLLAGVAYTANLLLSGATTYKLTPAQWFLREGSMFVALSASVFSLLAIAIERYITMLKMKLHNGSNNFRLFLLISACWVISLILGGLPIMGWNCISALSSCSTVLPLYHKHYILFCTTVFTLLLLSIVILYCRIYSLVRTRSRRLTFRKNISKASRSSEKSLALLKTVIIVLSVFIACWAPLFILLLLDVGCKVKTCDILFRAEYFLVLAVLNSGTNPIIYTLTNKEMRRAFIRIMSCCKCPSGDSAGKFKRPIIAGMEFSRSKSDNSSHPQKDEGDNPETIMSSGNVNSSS
EC50 is the concentration of agonist inducing 50% of the maximal specific ^35S-GTPγS binding. Specific binding is determined by subtracting non-specific binding from maximal binding. Maximal binding is the amount of cpm bound to the Multiscreen plate in the presence of 10 μM of S1P. Non-specific binding is the amount of binding in the absence of an agonist in the assay.
Background: GTPγS is a poorly hydrolysed GTP analogue; its binding reports G protein activation.

The subject of a further assay is circulating lymphocytes. In words: Assessment of in vivo efficacy: circulating lymphocytes after oral administration. More on the design: species or system normotensive male Wistar rats. As to conditions: 6 h after oral administration of 3 mg/kg, male Wistar rats, compared to vehicle group; mean ± SEM. How it is done:
The efficacy of the compounds of Formula (I) is assessed by measuring the circulating lymphocytes after oral administration of 3 to 30 mg/kg of a compound of Formula (I) to normotensive male Wistar rats. The animals are housed in climate-controlled conditions with a 12 h-light/dark cycle, and have free access to normal rat chow and drinking water. Blood is collected before and 3, 6 and 24 h after drug administration. Full blood is subjected to hematology using Advia Hematology system (Bayer Diagnostics, Zürich, Switzerland).
All data are presented as mean±SEM. Statistical analyses are performed by analysis of variance (ANOVA) using Statistica (StatSoft) and the Student-Newman-Keuls procedure for multiple comparisons. The null hypothesis is rejected when p≦0.05.

For the molecule `Cc1cc(-c2nc(-c3cnc(NC(C)C)c(C)c3)no2)cc(CC(C)C)n1` [Example 39], in assay [1], the concentration giving a half-maximal response (EC50) was found to be 6.1 nM.

`CCNc1cc(-c2nc(-c3cc(C)nc(CC)c3)no2)cc(C)n1` [Example 29]: the EC50 in assay [1] was found to be 0.9 nM.

As to `CCC(CC)c1cc(-c2nc(-c3cc(C)nc(C)c3)no2)cc(C)n1` [Example 65], the EC50 in assay [1] was 0.5 nM.

Consider `CCc1cc(-c2noc(-c3cc(OC)nc(C4CCCC4)c3)n2)cc(C)n1` [Example 117], for which the EC50 in assay [1] worked out at 2.1 nM.

With `Cc1cc(-c2noc(-c3cc(C)nc(CC(C)C)c3)n2)cc(C)n1` [Example 8], the EC50 in assay [1] is 0.4 nM.

In the case of `Cc1cc(-c2noc(-c3cc(C)nc(C4CCCC4)c3)n2)cc(C)n1` [Example 66], in assay [1], the EC50 was 0.3 nM.

`CCCc1cc(-c2nc(-c3cc(C)nc(C)c3)no2)cc(C)n1` [Example 6]: the EC50 in assay [1] was 2.4 nM. The Lymphocyte counts with circulating lymphocytes is −68% ± 3%^.

For the molecule `CCc1cc(-c2noc(-c3cc(C)nc(C(CC)CC)c3)n2)cc(C)n1` [Example 45], the EC50 in assay [1] was determined as 0.4 nM.

Consider `CCc1cc(-c2nc(-c3cc(C)nc(C)c3)no2)cc(CC(C)C)n1` [Example 61], for which the concentration for a half-maximal effect (EC50) in assay [1] amounted to 1 nM.

On to `CCc1cc(-c2noc(-c3cc(CC)nc(CC(C)C)c3)n2)cc(C)n1` [Example 62], for which the EC50 in assay [1] stood at 1.4 nM.

`CCc1cc(-c2noc(-c3cc(C)nc(CC)c3)n2)cc(C)n1` [Example 2]: the EC50 in assay [1] was 5.2 nM.
